The target of data set [1] is T1, Metabotropic glutamate receptor 2 (Homo sapiens, UniProt Q14416). In words: Positive allosteric modulation of human mGlu2 receptor expressed in CHO cells assessed as glutamate-induced [35S]GTPgammaS binding after 30 mins by liquid scintillation counting. It is filed as functional, cell-based. For orientation: GTPγS is a poorly hydrolysed GTP analogue; its binding reports G protein activation.
Target sequence in this assay (Q14416 whole entry): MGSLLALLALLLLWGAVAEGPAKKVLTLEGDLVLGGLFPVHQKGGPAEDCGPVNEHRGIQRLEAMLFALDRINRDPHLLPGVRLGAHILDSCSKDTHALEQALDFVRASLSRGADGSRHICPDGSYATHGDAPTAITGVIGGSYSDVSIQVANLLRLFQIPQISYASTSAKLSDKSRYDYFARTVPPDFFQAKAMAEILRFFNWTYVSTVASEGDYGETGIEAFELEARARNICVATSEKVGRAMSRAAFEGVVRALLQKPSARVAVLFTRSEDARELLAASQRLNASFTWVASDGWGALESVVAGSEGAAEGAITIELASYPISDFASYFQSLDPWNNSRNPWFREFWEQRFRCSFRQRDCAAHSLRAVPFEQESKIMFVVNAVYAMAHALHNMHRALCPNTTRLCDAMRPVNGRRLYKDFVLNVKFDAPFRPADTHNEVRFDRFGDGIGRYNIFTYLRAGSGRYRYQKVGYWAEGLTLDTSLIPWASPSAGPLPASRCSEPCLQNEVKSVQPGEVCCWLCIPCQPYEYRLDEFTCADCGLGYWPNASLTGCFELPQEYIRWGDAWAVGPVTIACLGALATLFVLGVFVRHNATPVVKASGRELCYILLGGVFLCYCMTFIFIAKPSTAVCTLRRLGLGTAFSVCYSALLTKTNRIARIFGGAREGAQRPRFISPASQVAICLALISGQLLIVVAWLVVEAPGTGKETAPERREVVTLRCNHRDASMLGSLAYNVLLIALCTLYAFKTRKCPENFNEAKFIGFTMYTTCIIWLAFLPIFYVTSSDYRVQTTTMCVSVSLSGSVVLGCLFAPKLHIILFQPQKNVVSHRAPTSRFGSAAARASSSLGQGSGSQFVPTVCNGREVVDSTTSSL

Data set [2] has as its target T1, Metabotropic glutamate receptor 2. Nature of the data set: Positive allosteric modulation of human mGlu2 receptor expressed in CHO cells assessed as glutamate-induced [35S]GTPgammaS binding after 30 mins by liquid scintillation counting relative to glutamate. It is filed as functional, cell-based.
Target sequence in this assay (Q14416 19-872 limits assumed): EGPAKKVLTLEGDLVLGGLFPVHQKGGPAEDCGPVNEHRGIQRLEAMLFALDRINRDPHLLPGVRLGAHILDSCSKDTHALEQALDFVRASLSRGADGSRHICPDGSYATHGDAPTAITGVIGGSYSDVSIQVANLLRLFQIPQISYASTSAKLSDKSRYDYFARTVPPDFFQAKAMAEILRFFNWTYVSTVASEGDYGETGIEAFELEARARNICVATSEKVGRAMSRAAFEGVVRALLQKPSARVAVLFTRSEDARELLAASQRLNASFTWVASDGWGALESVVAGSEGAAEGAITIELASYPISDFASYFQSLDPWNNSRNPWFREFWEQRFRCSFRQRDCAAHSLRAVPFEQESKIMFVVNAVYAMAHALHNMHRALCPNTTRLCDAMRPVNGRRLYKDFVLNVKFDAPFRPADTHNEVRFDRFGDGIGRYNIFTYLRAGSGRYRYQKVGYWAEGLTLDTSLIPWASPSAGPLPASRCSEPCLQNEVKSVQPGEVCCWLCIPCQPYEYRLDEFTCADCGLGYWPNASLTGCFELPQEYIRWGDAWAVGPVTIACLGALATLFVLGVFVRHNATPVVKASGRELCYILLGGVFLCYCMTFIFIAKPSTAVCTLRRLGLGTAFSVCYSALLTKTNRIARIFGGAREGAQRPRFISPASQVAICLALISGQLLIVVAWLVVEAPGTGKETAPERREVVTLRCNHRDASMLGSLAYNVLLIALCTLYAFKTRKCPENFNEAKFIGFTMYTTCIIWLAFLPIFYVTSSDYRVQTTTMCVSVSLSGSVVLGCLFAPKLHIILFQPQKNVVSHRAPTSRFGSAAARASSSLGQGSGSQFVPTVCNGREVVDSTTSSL
Data set [3] in a line: Drug metabolism in human liver microsomes at 5 uM after 15 mins. It is filed as ADME, Microsome. Particulars: read-out: Drug metabolism. A general note: Liver microsomes are vesicles of endoplasmic reticulum, rich in cytochrome P450 enzymes.
Data set [4] can be described thus: Drug metabolism in rat liver microsomes at 5 uM after 15 mins. In kind it is ADME, Microsome. The following applies: read-out: Drug metabolism.
The target in another data set is hERG (Homo sapiens, UniProt Q12809). In words: Inhibition of human ERG expressed in HEK293 cells assessed as whole cell current at 3 uM after 5 mins by automated patch-clamp assay relative to control. In kind it is cell-based. Particulars: HEK293 cells expressing hERG.
Data set [5] is described as follows: Drug level in Swiss mouse brain at 10 mg/kg, sc after 0.5 hrs. It is filed as ADME, organism-based. Set-up: dose 10 mg/kg, route subcutaneous. The following applies: read-out: Drug uptake.
The nature of data set [6]: Drug level in Swiss mouse brain at 10 mg/kg, sc after 1 hr. In kind it is ADME, organism-based. Set-up: dose 10 mg/kg, route subcutaneous. The following applies: read-out: Drug uptake.
A short description of data set [7]: Drug level in Swiss mouse brain at 10 mg/kg, sc after 1.5 hrs. The following applies: read-out: Drug uptake. In kind it is ADME, organism-based. Set-up: dose 10 mg/kg, route subcutaneous.
The nature of data set [8]: Ratio of drug level in brain to plasma in Swiss mouse at 10 mg/kg, sc after 1 hr. It is filed as ADME, organism-based. Set-up: dose 10 mg/kg, route subcutaneous. Particulars: read-out: BPR.
Data set [9] in a line: Aqueous solubility of the compound in 20% HP-beta-CD buffer at pH 4. In kind it is physicochemical.

Data on 14 molecules can be found in ChEMBL document CHEMBL2029212, “Discovery of 1,4-disubstituted 3-cyano-2-pyridones: a new class of positive allosteric modulators of the metabotropic glutamate 2 receptor” (J Med Chem, 2012).

Chain of hERG (Q12809 whole entry): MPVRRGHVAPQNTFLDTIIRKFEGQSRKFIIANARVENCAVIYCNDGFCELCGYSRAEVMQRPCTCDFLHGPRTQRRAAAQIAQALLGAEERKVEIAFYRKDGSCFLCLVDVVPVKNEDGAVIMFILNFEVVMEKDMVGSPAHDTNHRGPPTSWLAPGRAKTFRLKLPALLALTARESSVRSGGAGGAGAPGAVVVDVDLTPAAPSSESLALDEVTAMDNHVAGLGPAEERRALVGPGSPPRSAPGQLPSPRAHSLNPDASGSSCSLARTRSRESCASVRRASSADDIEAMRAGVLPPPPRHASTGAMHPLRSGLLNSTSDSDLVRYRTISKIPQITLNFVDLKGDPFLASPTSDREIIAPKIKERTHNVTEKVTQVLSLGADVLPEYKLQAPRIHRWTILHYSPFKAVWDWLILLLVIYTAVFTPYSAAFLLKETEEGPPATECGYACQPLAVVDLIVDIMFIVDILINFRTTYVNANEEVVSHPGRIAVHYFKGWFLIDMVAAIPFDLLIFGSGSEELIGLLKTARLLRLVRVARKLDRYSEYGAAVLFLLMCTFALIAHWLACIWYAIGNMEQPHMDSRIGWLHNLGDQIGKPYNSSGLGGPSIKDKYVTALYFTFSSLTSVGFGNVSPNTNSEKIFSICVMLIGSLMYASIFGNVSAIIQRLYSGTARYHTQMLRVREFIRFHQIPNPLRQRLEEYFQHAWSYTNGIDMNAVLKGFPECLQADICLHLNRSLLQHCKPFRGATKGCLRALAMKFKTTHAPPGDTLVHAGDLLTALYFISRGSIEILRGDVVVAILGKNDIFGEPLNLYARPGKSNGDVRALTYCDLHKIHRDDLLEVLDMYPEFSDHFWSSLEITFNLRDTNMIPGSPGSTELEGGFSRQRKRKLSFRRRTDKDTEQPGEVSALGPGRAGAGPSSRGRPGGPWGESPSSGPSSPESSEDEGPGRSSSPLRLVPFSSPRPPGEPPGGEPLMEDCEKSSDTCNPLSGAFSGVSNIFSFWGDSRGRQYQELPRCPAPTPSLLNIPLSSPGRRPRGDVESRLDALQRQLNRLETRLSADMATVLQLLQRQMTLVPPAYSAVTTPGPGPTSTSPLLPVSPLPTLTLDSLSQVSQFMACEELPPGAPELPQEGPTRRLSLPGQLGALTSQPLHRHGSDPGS

In general, EC50 refers to the midpoint of the concentration-response curve. For orientation: Emax means the size of the effect at its maximum, as opposed to the concentration needed. As a reminder, the inhibition is the drop in the measured response relative to a control, in per cent. As to `Cc1ccc(Oc2ccc(-c3ccn(CC4CC4)c(=O)c3C#N)cc2Cl)c(C)n1`, the 50% effective concentration (EC50) in data set [1] came to 64 nM. Besides, the Emax in data set [2] was 196%. The results for the metabolised at 0.25 h, 5 µM in data set [3] and in [4] were 25% and 27%, respectively. For the same molecule, the inhibition at 5 min, 3 µM at hERG was determined as 89%. Besides, the concentration at 0.5 h in [5] was determined as 750 ng/g. Further, the concentration at 1 h in [6] amounted to 357 ng/g. The concentration at 1.5 h in [7] is 240 ng/g. The Kp at 1 h in [8] is 0.1.
In the case of `CC(C)CCn1ccc(-c2ccc(Nc3ccncc3)cc2)c(C#N)c1=O`, the EC50 in [1] stood at 1480 nM. Further, the maximal response (Emax) in data set [2] amounted to 186%. The figures for the metabolised at 0.25 h, 5 µM in data set [3] and in [4] were 25% and 33%, respectively. The inhibition at 5 min, 3 µM on hERG was found to be 91%.
Usually solubility stands for the dissolved amount per volume that the medium holds. For the molecule `CC(C)CCn1ccc(-c2ccc(Oc3cccnc3)cc2)c(C#N)c1=O`, in [1], the EC50 was 479 nM. For the same molecule, the maximum response (Emax) in [2] came to 231%. Besides, the results for the metabolised at 0.25 h, 5 µM in data set [3] and in [4] were 21% and 29%, respectively. Also, the solubility in [9] was at least 4000 µg/mL. Further, the inhibition at 5 min, 3 µM at hERG was found to be 30%.
Turning to `CCCCn1ccc(-c2ccc(Oc3ccnc(C)c3)cc2F)c(C#N)c1=O`, the Emax in data set [2] is 232%. In addition, the metabolised at 0.25 h, 5 µM in [3] was determined as 31%; in data set [4], 50%. Also, the inhibition at 5 min, 3 µM at hERG came to 52%.
In the case of `CCCCn1ccc(-c2ccc(Oc3cc(C)nc(C)c3)c(F)c2)c(C#N)c1=O`, the concentration for a half-maximal effect (EC50) in data set [1] came out at 372 nM. The Emax in data set [2] stood at 217%. Further, the results for the metabolised at 0.25 h, 5 µM in data set [3] and in data set [4] were 16% and 41%, respectively. In addition, the inhibition at 5 min, 3 µM at hERG came out at 71%.
`CCCCn1ccc(-c2ccc(Oc3ccc(C)nc3C)c(Cl)c2)c(C#N)c1=O`: the EC50 in [1] was 30 nM. Moreover, the Emax in [2] stood at 231%. Besides, the figures for the metabolised at 0.25 h, 5 µM in data set [3] and in data set [4] were 34% and 50%, respectively. The inhibition at 5 min, 3 µM on hERG was found to be 80%. In addition, in [5], the concentration at 0.5 h is 1480 ng/g. In data set [6], the concentration at 1 h was 830 ng/g. Moreover, in [7], the concentration at 1.5 h was 281 ng/g. Besides, the Kp at 1 h in [8] was determined as 0.4.
`Cc1ncccc1Oc1ccc(-c2ccn(CCC(C)C)c(=O)c2C#N)cc1`: the half-maximal effective concentration (EC50) in data set [1] came to 275 nM. The Emax in data set [2] came to 256%. Moreover, the results for the metabolised at 0.25 h, 5 µM in [3] and in data set [4] were 57% and 45%, respectively. In addition, the inhibition at 5 min, 3 µM at hERG came out at 36%.
Turning to `CCCCn1ccc(-c2ccc(Oc3cccnc3C)cc2)c(C#N)c1=O`, in data set [1], the EC50 was determined as 347 nM. Moreover, the Emax in data set [2] worked out at 228%. The metabolised at 0.25 h, 5 µM in [3] stood at 30%; in data set [4], 50%. Further, the inhibition at 5 min, 3 µM at hERG came out at 31%. Besides, the concentration at 0.5 h in data set [5] was found to be 822 ng/g. In data set [6], the concentration at 1 h was determined as 294 ng/g. Besides, in [7], the concentration at 1.5 h was 100 ng/g. Besides, the Kp at 1 h in data set [8] is 0.3.
For `Cc1ncccc1Oc1ccc(-c2ccn(CC3CC3)c(=O)c2C#N)cc1Cl`, the EC50 in [1] stood at 230 nM. Further, in data set [2], the Emax stood at 180%. Further, the metabolised at 0.25 h, 5 µM was 37% in [3] and 22% in data set [4]. Besides, on hERG, the inhibition at 5 min, 3 µM was determined as 75%.
Turning to `CC(C)CCn1ccc(-c2ccc(Oc3ccccn3)cc2)c(C#N)c1=O`, in [1], the 50% effective concentration (EC50) came to 646 nM. In addition, in [2], the Emax turned out to be 249%. The metabolised at 0.25 h, 5 µM in data set [3] was found to be 20%; in data set [4], 36%. Also, the inhibition at 5 min, 3 µM at hERG was determined as 33%.
The corresponding values for `Cc1ccc(Oc2ccc(-c3ccn(CC4CC4)c(=O)c3C#N)cc2)c(C)n1` are 263 nM, 183%, 35%, 42% and 68%.
The corresponding values for `CCCCn1ccc(-c2ccc(Oc3cccnc3C)c(Cl)c2)c(C#N)c1=O` are 100 nM, 236%, 29%, 60% and 56%.
Consider `Cc1cc(Oc2ccc(-c3ccn(CC4CCC4)c(=O)c3C#N)cc2)ccn1`, for which the EC50 in data set [1] was 126 nM. The Emax in data set [2] was found to be 233%. For the same molecule, the metabolised at 0.25 h, 5 µM in [3] amounted to 36%; in data set [4] it was 44%. The inhibition at 5 min, 3 µM on hERG was 80%.
In the case of `CC(C)CCn1ccc(-c2ccc(N3CCOCC3)cc2)c(C#N)c1=O`, the EC50 in data set [1] came out at 2040 nM. The Emax in data set [2] came to 236%. Moreover, the metabolised at 0.25 h, 5 µM in data set [3] worked out at 38%; in data set [4] it was 48%.
